Reference: paper PMC12206033, “Selective inhibition of TRPV3 channel by natural rosmarinic acid and its analogs for alleviation of skin lesions through downregulation of NF-κB pathway” (The Journal of Biological Chemistry, 2025)
Where two headings read alike, the source gives them in different places.

Experiments:
hTRPV3 = target: T1, hTRPV3 (Homo sapiens, UniProt Q8NET8); assay: whole-cell patch-clamp of hTRPV3 currents in HEK293T cells activated by 2-APB; assay type: cell-based; settings: for inhibition at 50 µM: agonist 2-APB 50 μM
T1 construct: expressed in transfected cells; host or cells: HEK293T
T1 sequence (Q8NET8 1-790): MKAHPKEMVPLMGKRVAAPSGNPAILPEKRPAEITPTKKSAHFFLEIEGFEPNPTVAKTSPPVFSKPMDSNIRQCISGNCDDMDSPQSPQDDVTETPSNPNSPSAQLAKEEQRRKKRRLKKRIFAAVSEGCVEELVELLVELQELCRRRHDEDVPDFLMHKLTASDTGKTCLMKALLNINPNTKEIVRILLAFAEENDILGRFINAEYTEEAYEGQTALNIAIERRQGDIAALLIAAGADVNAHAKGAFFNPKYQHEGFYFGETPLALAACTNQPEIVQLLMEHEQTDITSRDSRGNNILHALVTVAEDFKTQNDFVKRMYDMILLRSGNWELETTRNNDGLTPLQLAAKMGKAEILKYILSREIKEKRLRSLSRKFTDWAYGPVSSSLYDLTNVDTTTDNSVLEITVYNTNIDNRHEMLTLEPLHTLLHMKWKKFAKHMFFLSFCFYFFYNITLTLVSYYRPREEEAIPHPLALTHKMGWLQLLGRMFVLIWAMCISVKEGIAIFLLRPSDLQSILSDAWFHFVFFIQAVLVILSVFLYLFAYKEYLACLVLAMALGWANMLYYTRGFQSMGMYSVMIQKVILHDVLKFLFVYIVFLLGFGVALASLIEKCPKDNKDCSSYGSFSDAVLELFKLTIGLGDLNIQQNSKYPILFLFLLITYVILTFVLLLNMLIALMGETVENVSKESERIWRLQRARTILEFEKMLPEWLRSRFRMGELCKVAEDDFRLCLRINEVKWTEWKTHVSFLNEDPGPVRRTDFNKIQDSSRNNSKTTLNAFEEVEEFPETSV
Protocol: HEK293T cell line was obtained from the Cell Resource Center, Peking Union Medical College. HEK293T cells were maintained in Dulbecco’s modified Eagle’s medium (DMEM, Gibco) supplemented with 10% fetal bovine serum at 37 °C with 5% CO2. HEK293T cells were seeded onto glass coverslips 1 day in advance and transiently transfected with […] complementary deoxyribonucleic acids of human TRPV3 (hTRPV3, accession number NM_145068.4), hTRPV1 (accession number NM_080704.3), mTRPV2 (accession number NM_011706.2), hTRPV4 (accession number NM_021625.5), hTRPA1 (accession number NM_007332.3), and hTRPM8 (accession number NM_024080.5) through Lipofectamine 2000 (Invitrogen) following the manufacture’s protocol. The next day, determine the plasmid transfection status by observing green fluorescence based on expression of enhanced GFP as an indicator. All WT or mutant hTRPV3 complementary deoxyribonucleic acid plasmids were confirmed by DNA sequencing. When conducting experiments on HEK293T cells transfected with G573S point mutant TRPV3 plasmid, we replaced culture medium with or without compounds after 4 h of transfection and then observed green fluorescence of HEK293T cell after 10 h. As for the relative fluorescence intensity, we convert the image to 8 bit grayscale using ImageJ (Https://imagej.net/software/fiji/downloads) and set an appropriate threshold value to reduce background noise and enhance the image contrast.
All patch-clamp recordings were conducted 16 to 24 h after transfection using an EPC10 amplifier powered by PatchMaster software (HEKA) (https://www.heka.com/downloads/downloads_main.html#down_patchmaster) at room temperature. The borosilicate glass pipettes were pulled using a DMZ universal electrode puller (Zeitz-Instruments GmbH) to achieve the resistances of three to 5 MΩ (for whole-cell recordings) or five to 9 MΩ (for inside-out patch recordings). Currents were recorded at a potential ramp from −100 mV to +100 mV for 1000 ms with 1000-ms intervals (for whole-cell recordings) or a persistent potential of −60 mV (inside-out patch recordings). Both pipette solution and bath solution contained (in mM): 130 NaCl, 3 Hepes, and 0.2 EDTA (pH = 7.2–7.4). All recording data were analyzed using Igor Pro (Wave-metrics) (https://www.wavemetrics.com/order/order_igordownloads.htm) and Origin 8.6 (Origin Lab) (https://www.originlab.com/doc/zh/Quick-Help/Download-Installer).

mTRPV2 = target: T2, mTRPV2 (Mus musculus, UniProt Q9WTR1); assay: whole-cell patch-clamp of mTRPV2 currents activated by 2-APB; assay type: cell-based; settings: ROSA 50 μM; agonist 2-APB 2 mM; read-out: inhibition of TRPV2 currents
T2 construct: expressed in transfected cells; host or cells: HEK293T
T2 sequence (Q9WTR1 1-756): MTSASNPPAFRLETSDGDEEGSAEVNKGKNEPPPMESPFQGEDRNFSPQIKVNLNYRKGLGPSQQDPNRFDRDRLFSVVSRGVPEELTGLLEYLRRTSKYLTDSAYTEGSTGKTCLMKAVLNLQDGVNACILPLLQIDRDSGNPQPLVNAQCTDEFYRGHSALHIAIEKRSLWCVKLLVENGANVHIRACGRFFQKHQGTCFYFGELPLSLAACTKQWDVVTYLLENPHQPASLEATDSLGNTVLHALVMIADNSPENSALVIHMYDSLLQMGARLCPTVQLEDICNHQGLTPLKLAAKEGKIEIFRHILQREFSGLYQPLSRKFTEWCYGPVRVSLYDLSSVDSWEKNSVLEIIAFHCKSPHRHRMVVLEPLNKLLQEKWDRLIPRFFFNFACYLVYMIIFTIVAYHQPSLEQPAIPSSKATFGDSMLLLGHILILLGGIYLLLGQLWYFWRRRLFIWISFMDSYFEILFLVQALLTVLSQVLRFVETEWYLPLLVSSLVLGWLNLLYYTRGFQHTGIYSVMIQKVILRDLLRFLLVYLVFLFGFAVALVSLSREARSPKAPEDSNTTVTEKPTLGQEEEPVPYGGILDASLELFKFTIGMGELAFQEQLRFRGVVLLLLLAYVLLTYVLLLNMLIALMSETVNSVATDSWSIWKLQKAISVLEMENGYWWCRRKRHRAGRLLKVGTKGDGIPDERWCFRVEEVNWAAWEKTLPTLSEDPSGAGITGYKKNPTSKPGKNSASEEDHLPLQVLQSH
Protocol: HEK293T cell line was obtained from the Cell Resource Center, Peking Union Medical College. HEK293T cells were maintained in Dulbecco’s modified Eagle’s medium (DMEM, Gibco) supplemented with 10% fetal bovine serum at 37 °C with 5% CO2. […] The next day, determine the plasmid transfection status by observing green fluorescence based on expression of enhanced GFP as an indicator. […] When conducting experiments on HEK293T cells transfected with G573S point mutant TRPV3 plasmid, we replaced culture medium with or without compounds after 4 h of transfection and then observed green fluorescence of HEK293T cell after 10 h. As for the relative fluorescence intensity, we convert the image to 8 bit grayscale using ImageJ (Https://imagej.net/software/fiji/downloads) and set an appropriate threshold value to reduce background noise and enhance the image contrast.
All patch-clamp recordings were conducted 16 to 24 h after transfection using an EPC10 amplifier powered by PatchMaster software (HEKA) (https://www.heka.com/downloads/downloads_main.html#down_patchmaster) at room temperature. […] Currents were recorded at a potential ramp from −100 mV to +100 mV for 1000 ms with 1000-ms intervals (for whole-cell recordings) or a persistent potential of −60 mV (inside-out patch recordings). […]

`O=C(/C=C/c1ccc(O)c(O)c1)O[C@H](Cc1ccc(O)c(O)c1)C(=O)O` [ROSA, rosmarinic acid] was tested, and the IC50 (hTRPV3) was 12.4 ± 4.2 µM, the inhibition at 50 µM (hTRPV3; HEK-293T, ROSA 50 μM, Fig. 2G, read-out: inhibition of TRPV3 currents) was roughly 74.3% and the inhibition at 100 µM (hTRPV3; HEK-293T, ROSA 100 μM, 2-APB, WT, read-out: inhibition of macroscopic WT hTRPV3 currents) was 87%. It also gave an inhibition at 50 µM (hTRPV3; HEK-293T, compound 50 μM, Fig. 3I, n = 4-5, read-out: inhibition of hTRPV3 currents) of roughly 75.3% and an inhibition at 50 µM (mTRPV2) of 21 ± 6.1%.
